Data reported in PubChem BioAssay (NCI).
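Five compound concentrations were applied to cells in 96-well plates for 48 hours; endpoints were derived by simple linear interpolation of the resulting dose-response curve. TGI marks complete inhibition of growth.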

Columns and labels:
Experiment in all cases: inhibition of tumour cell growth, NCI panel, 48 h
A498 renal = tested on: A498 renal
COLO 205 colon = tested on: COLO 205 colon
EKVX NSCLC = tested on: EKVX NSCLC
HL-60(TB) leukemia = tested on: HL-60(TB) leukemia
M14 melanoma = tested on: M14 melanoma
MCF7 breast = tested on: MCF7 breast
MDA-MB-435 = tested on: MDA-MB-435
NCI-H23 lung = tested on: NCI-H23 lung
OVCAR-4 ovarian = tested on: OVCAR-4 ovarian
SK-MEL-28 melanoma = tested on: SK-MEL-28 melanoma
TK-10 renal = tested on: TK-10 renal

Row | Compound | TGI (A498 renal) [µM] | TGI (COLO 205 colon) [µM] | TGI (EKVX NSCLC) [µM] | TGI (HL-60(TB) leukemia) [µM] | TGI (M14 melanoma) [µM] | TGI (MCF7 breast) [µM] | TGI (MDA-MB-435) [µM] | TGI (NCI-H23 lung) [µM] | TGI (OVCAR-4 ovarian) [µM] | TGI (SK-MEL-28 melanoma) [µM] | TGI (TK-10 renal) [µM]
1 | O=C(N/N=C/c1ccc([N+](=O)[O-])o1)c1ccc(C(=O)N/N=C/c2ccc([N+](=O)[O-])o2)cc1 | > 100 | 94.7 | > 100 | 44.4 | > 100 | 48.9 | 30.9 | > 100 | > 100 | 75.7 | –
2 | Cc1cc(N=Nc2c(O)ccc3ccccc23)ccc1N=Nc1cccc([N+](C)(C)C)c1 | 98.8 | – | 62.1 | – | 59.3 | > 53.1 | > 74.5 | 52 | > 100 | 62.3 | 49.5
3 | CCN(CC)CCCC(C)Nc1ccnc2ccc3nn(C)nc3c12 (stereo unspecified) | > 100 | > 100 | > 100 | > 100 | 90.1 | – | – | > 100 | – | – | > 100
4 | COc1cc(NC(C)=O)ccc1C(=O)NN1C(=O)C(Cl)C1c1ccco1 (stereo unspecified) | > 100 | > 100 | > 100 | > 100 | > 100 | > 100 | > 100 | > 100 | > 100 | > 100 | –
5 | Cn1c(-c2cccs2)cc(-c2cccs2)c1-c1ccco1 | > 79.2 | > 77.8 | > 100 | > 75.7 | > 84.5 | 5.41 | – | > 25 | 5.07 | > 100 | > 100
6 | CCN(CC)CCN1C(=O)c2c(c(-c3ccccc3)c3ccccc3c2-c2ccccc2)C1=O | > 100 | > 100 | > 100 | > 100 | > 100 | > 100 | > 100 | – | > 100 | – | > 100
7 | O=C1O[C@H]2[C@H](O)[C@@H](OC(=O)c3cc(O)c(O)c4c3[C@@H]3C1=CC(=O)C(O)(O)C3(O)O4)[C@H](OC(=O)c1cc(O)c(O)c(O)c1)O[C@@H]2CO (stereo partly specified) | > 100 | > 100 | > 100 | > 100 | > 100 | > 100 | > 100 | > 100 | > 100 | > 100 | –
8 | CC(=O)Oc1cc2c(c3ncccc13)OC(C)(C)C2 | 33 | 35 | – | – | 27.5 | 61.8 | 24 | > 100 | 25.5 | > 100 | 26.3
9 | c1ccc(C2=NOC3(c4ccccc4)SC4CCCCC4CN23)cc1 (stereo unspecified) | > 100 | 69.4 | > 100 | > 100 | 49.3 | – | – | > 100 | > 100 | > 100 | > 100
10 | COc1ccc(C2Oc3cc(OC)c(O)c(C)c3[C@H]2C)cc1 (stereo partly specified) | > 100 | > 100 | > 100 | 76.7 | > 100 | – | – | > 100 | > 100 | > 100 | > 100
11 | NC(=O)c1coc(C2OC(CO)C(O)C2O)n1 (stereo unspecified) | > 100 | > 100 | > 100 | > 100 | > 100 | – | – | > 100 | > 100 | > 100 | > 100
12 | Cc1ccc2c(c1)C(=O)N1CCC[C@H]1C=N2 | > 100 | 37.8 | 71 | – | 47.8 | > 76.5 | 33.2 | 39.7 | 53.8 | 52 | 85.7
13 | O=C1CC(=O)NC(=NN2C(=O)/C(=C/c3ccccc3)N=C2c2ccccc2)N1 | > 100 | > 100 | – | – | > 100 | > 100 | > 100 | > 100 | > 100 | > 100 | > 100
14 | CCN(CC)CCNC(=O)c1ccc(I)cc1 | 84.9 | > 100 | > 100 | – | > 100 | > 100 | > 100 | > 100 | > 100 | > 100 | > 100
15 | Cc1cc(S(=O)(=O)/N=C(\[N-]S(=O)(=O)c2ccc(Cl)cc2)[n+]2ccc(N(C)C)cc2)c(S)cc1Cl | 99.2 | – | > 100 | > 100 | > 100 | > 100 | > 100 | > 100 | > 100 | > 100 | > 100
16 | C/C=C1/CN2CCC3(O)c4ccccc4N4C=C(C(=O)OC)C1CC2C43O (stereo unspecified) | – | > 100 | > 100 | > 100 | > 100 | > 100 | > 100 | > 100 | > 100 | > 100 | > 100
17 | NC(=O)NC(=O)c1cccc(CNc2ccc(C(=O)N[C@@H](CCC(=O)O)C(=O)O)cc2)n1 | – | > 100 | > 100 | > 100 | > 100 | > 100 | > 100 | > 100 | > 100 | > 100 | > 100
18 | CCOC(=O)Cc1csc2[n+]1C(=O)/C(=C\c1cccc(Cl)c1Cl)S2 | – | 20.7 | 50.7 | 51.5 | 85.1 | > 100 | > 100 | 48.9 | 42.3 | 50.9 | 55.6
19 | O=C(CCCNc1nc(-c2ccccc2)cs1)c1cccs1 | – | > 100 | > 100 | – | > 100 | > 100 | > 100 | > 100 | > 100 | > 100 | > 100
20 | O=C(C[n+]1ccccc1)N/N=C(\Cc1nc2ccc([N+](=O)[O-])cc2[nH]c1=O)C(=O)Nc1cc(Cl)c(Cl)cc1Cl | > 100 | > 100 | > 100 | > 100 | > 100 | > 100 | > 100 | > 100 | > 100 | > 100 | –
21 | COP(=O)(Cc1ccccc1)Cc1ccccc1 | – | > 100 | > 100 | > 100 | > 100 | > 100 | – | > 100 | > 100 | > 100 | > 100
22 | [N-]=[N+]=Nc1c(C=O)c(=O)n(-c2ccccc2)c2ccccc12 | 10.1 | 46.5 | – | > 100 | 34.1 | 64.2 | 34.5 | 38 | 37.4 | 35.3 | 39.1

Row | Compound | TGI (A498 renal) [µM] | TGI (COLO 205 colon) [µM] | TGI (EKVX NSCLC) [µM] | TGI (HL-60(TB) leukemia) [µM] | TGI (M14 melanoma) [µM] | TGI (MCF7 breast) [µM] | TGI (MDA-MB-435) [µM] | TGI (NCI-H23 lung) [µM] | TGI (OVCAR-4 ovarian) [µM] | TGI (SK-MEL-28 melanoma) [µM] | TGI (TK-10 renal) [µM]
23 | O=C(Nc1cc2c(=O)oc3ccccc3c2oc1=O)c1cccnc1 | – | > 100 | > 100 | > 100 | > 100 | > 100 | > 100 | > 100 | > 100 | > 100 | > 100
24 | CC(C)(C)OC(=O)N(O)CCCn1cnc2c(N)ncnc21 | > 100 | > 100 | > 100 | – | > 100 | > 100 | > 100 | > 100 | > 100 | > 100 | > 100
25 | COC(=O)C1c2c(c3ccccc3n2C(=O)OC)CCN2CCC1C(S(=O)(=O)c1ccccc1)C2=O (stereo unspecified) | > 100 | > 100 | > 100 | > 100 | > 100 | > 100 | > 100 | > 100 | – | > 100 | > 100
26 | CN(CCO)c1nc(N)cc(=O)[nH]1 | – | > 100 | > 100 | > 100 | > 100 | – | – | > 100 | – | > 100 | > 100
27 | COc1ccc2c(c1)/C(=C\c1c(C)nc3sc(C)cn13)C(=O)N2 | 5.42 | – | 44.2 | 3.63 | > 100 | > 100 | 0.458 | > 70.7 | > 100 | > 100 | > 100
28 | O=C1NC(N2CCCCC2)=N/C1=C\c1cccs1 | – | > 100 | > 100 | > 100 | > 100 | > 100 | > 100 | > 100 | > 100 | > 100 | > 100
29 | CS(=O)(=O)c1c(N)c2nc(Cl)cn2c2nc3ccccc3nc12 | – | > 100 | > 100 | – | > 100 | – | – | > 100 | > 100 | > 100 | –
30 | O=c1[nH]c2cc([N+](=O)[O-])ccc2nc1/C(=N/Nc1ccccc1)C(O)c1ccc(C(O)/C(=N\Nc2ccccc2)c2cnc3cc([N+](=O)[O-])ccc3n2)cc1 (stereo unspecified) | > 100 | > 100 | > 100 | > 100 | > 100 | – | – | > 100 | > 100 | > 100 | > 100
31 | Cc1nn(C(=O)c2ccncc2)c2c1C(c1ccccc1)SC(N)=N2 (stereo unspecified) | – | > 10 | > 10 | > 10 | > 10 | > 10 | > 10 | > 10 | > 10 | > 10 | > 10
32 | N#CC(C#N)=C(N)/C(C#N)=C/c1ccc2ccccc2n1 | > 100 | – | > 100 | – | > 100 | > 100 | > 100 | > 100 | > 100 | 43.2 | > 100
33 | O=C(Cc1csc(-c2nc(CC(=O)NNc3ccccc3)cs2)n1)NNc1ccccc1 | > 100 | 64 | > 100 | > 100 | > 100 | – | – | > 100 | > 100 | > 100 | > 100
34 | CCN(CC)CCCn1c(=O)c2ccccc2n2c3c(=O)n(C)c(=O)n(C)c3nc12 | – | 20.6 | 36.6 | 9.08 | 25.1 | > 100 | 27.5 | 21.2 | 22.6 | 30.2 | 38.9
35 | Cc1oc(N)c(S(=O)(=O)c2ccc(Cl)cc2)c1C | > 100 | – | > 100 | > 100 | > 100 | > 100 | > 100 | > 100 | > 100 | > 100 | > 100
36 | CCCCc1ccc(Nc2nc(=S)c3[nH]cnc3[nH]2)cc1 | 31.7 | 31.2 | – | 57.8 | > 100 | – | 48.1 | 51.7 | 76.4 | > 100 | 46.5
37 | CCOC(=O)Cc1csc2[n+]1C(=O)/C(=C/c1cccc(OC)c1O)S2 | – | > 100 | > 100 | > 100 | > 100 | > 100 | 50.5 | > 100 | > 100 | > 100 | > 100
38 | Clc1ccccc1C1=NN(c2ccccc2)C2c3ccccc3OCC12 (stereo unspecified) | > 100 | > 100 | > 100 | > 100 | – | – | – | > 100 | – | > 100 | > 100
39 | C/C1=C/C(C)CC(C)OC(=O)C(C)NC(=O)C(Cc2ccc(O)c(I)c2)N(C)C(=O)C(C)NC(=O)C(C)C1 (stereo unspecified) | < 0.0137 | – | – | < 0.01 | 48.8 | > 100 | 16 | 44.4 | – | – | 0.046
40 | CC(C)(C)NC(=O)NC12CC3CC(CC(F)(C3)C1)C2 | > 100 | > 100 | > 100 | > 100 | > 100 | – | – | > 100 | – | > 100 | > 100
41 | CCCCSC1=N/C(=C\c2ccc(N(C)C)cc2)C(NN)=N1 | > 100 | – | > 100 | > 100 | > 100 | > 100 | > 100 | > 100 | > 100 | > 100 | > 100
42 | CCOC(=O)c1nc2ccccc2nc1Nc1ccc(OC)c(OC)c1 | – | > 100 | > 100 | > 100 | > 100 | > 100 | > 100 | > 100 | > 100 | > 100 | –
43 | Cc1nc(C(N)=S)sc1C(/C=C/c1ccc(Cl)c(Cl)c1)=N/NC(C)(C)C | – | > 100 | > 100 | > 100 | – | > 100 | > 100 | > 100 | > 100 | > 100 | > 100
44 | Cc1ccc(N=N/C(=N/NC(=O)c2cc(Cl)ccc2C(=O)c2ccccc2)c2ccc(N(CCC#N)CCC#N)cc2C)cc1 | – | 27.7 | 84.7 | – | 41 | 15.2 | 82 | > 100 | 82.4 | > 100 | > 100
